The numbers were not newly measured in patent US6340484B1, “Compositions containing neem seed extracts and saccharide” (E.I.D. Parry (India) Limited, priority 2000, dated 2002), which cites them from elsewhere.

Read-outs that look alike come from different tables or passages of the source.

For the series the following is noted: 25 days at 29+/−1° C.

In the case of `C/C=C(\C)C(=O)O[C@H]1C[C@@H](OC(C)=O)[C@@]2(C(=O)OC)CO[C@H]3[C@@H](O)[C@@](C)([C@]45O[C@@]4(C)[C@@H]4C[C@H]5O[C@@H]5OC=C[C@@]54O)[C@H]4[C@]1(CO[C@]4(O)C(=O)OC)[C@@H]32` [azadirachtin A], the “degradation of azadirachtin A” value (in acetone) is on record as 50%; the “degradation of azadirachtin A” value (in carbon tetrachloride) is on record as 75-80%; the “degradation of azadirachtin A” value (in chloroform) is given as 75-80%; the “degradation of azadirachtin A” value (in ethanol) is given as “about 85%”; the “degradation of azadirachtin A” value (in methanol) was 50%; the “degradation of azadirachtin A” value (in methylene chloride) is given as 75-80%. For the same compound, the “degradation of azadirachtin A” value (in water) is “about 85%”.
